Test results from US12459951B2, “Compounds that interact with RAS superfamily proteins for treatment of cancers, inflammatory diseases, rasopathies, and fibrotic disease” (SHY Therapeutics, LLC, priority 2022, dated 2025).

Key:
MAPK p38 phosphorylation = experiment: MAPK p38 Activation Assay (western blot), Panc-1; assay type: cell-based, human; details: at 10 μM, Panc-1 pancreatic cancer cell line; starred symbols = activation
Protocol: Protocol for MAPK p38 Activation Assay
This assay is referred to as the “MAPK p38 Activation Assay” throughout this application.
Cell lines: Human tumor-derived pancreatic cancer cell line Panc-1 (expressing KRas G12D mutant) was purchased from American Type Culture Collection and grown in complete DMEM-High Glucose medium, supplemented with penicillin (100 U/mL), streptomycin (100 μg/mL), and 10% heat-inactivated FBS at 37° C. in a humidified incubator with 5% CO2.
Method 1: Cells were plated at 350000 cells/well density in a 12-well plate, allowed 3 hours to adhere to the plate, then starved in the appropriate medium in the presence of 0.5% FBS overnight. The small molecules to be tested were added to the cells in the final concentration of 10 μM in the presence of 0.3% DMSO for 6 hours incubation at 37° C. For IC50 value determination, serial dilutions of compounds were added to cells under the same conditions. Next, cells were stimulated with 1.5 ng/ml EGF for 15 minutes then cells were lysed with lysis buffer containing 1% Triton X-100, EDTA, and Halt™ Protease & Phosphatase Inhibitor Cocktail (Thermo Scientific). Protein concentration was assessed by BCA protein assay (Thermo Scientific). Phosphorylation level of MAPK p38 was determined by western blot.
Method 2: Cells were plated at 350000 cells/well density in a 12-well plate in 10% FBS. The next day small molecules to be tested were added to the cells in the final concentration of 10 μM in the presence of 0.3% DMSO for 6 hours incubation at 37° C. For IC50 value determination, serial dilutions of compounds were added to cells under the same conditions. Next, cells were lysed with lysis buffer containing 1% Triton X-100, EDTA, and Halt™ Protease & Phosphatase Inhibitor Cocktail (Thermo Scientific). Protein concentration was assessed by BCA protein assay (Thermo Scientific). Phosphorylation level of MAPK p38 was determined by western blot.
Western blot protocol: Equal amounts of protein (15-50 μg) were separated by SDS-PAGE and transferred to nitrocellulose membranes (Invitrogen by Thermo Fisher Scientific). The membrane was stained with Ponceau S Stain (Boston BioProducts) to verify uniform protein loading. Membranes were blocked with 10% milk and phosphorylation levels of MAPK p38 were assessed by incubating overnight at 4° C. with the following antibody: Phospho-p38 MAPK (Thr180/Tyr182), from Cell Signaling Technology. Then the membranes were incubated with HRP-conjugated secondary antibody (Jackson Immunoresearch, West Grove, PA). Bands were incubated in Amersham ECL Prime Western Blotting Detection Reagent (GE Healthcare) and visualized using the ChemiDoc MP imaging system (Bio-Rad).

IL6 = experiment: IL-6 Quantification Assay (ELISA), LPS-stimulated RAW 264.7; assay type: cell-based; design: inhibition: dose or concentration left out as unconfirmed; details: Mus musculus, RAW264.7; read-out: IL-6: % inh.
TNF-alpha = TNF-alpha Quantification Assay (ELISA), LPS-stimulated RAW 264.7; assay type: cell-based; details: Mus musculus, RAW264.7; at 10 μM; read-out: TNFα: % inh.
[1] = tested on: MiaPaca-2 (expressing KRAS G12C mutant); experiment: Proliferation Assay (Cell Viability Assay); assay type: cell-based; details: Homo sapiens, MIA PaCa-2; read-out: Proliferation in MiaPaca-2: IC50
Outline: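 After 2–4 days' exposure at 37 °C, 5% CO2 to a single 10 μM final concentration or a dilution series (IC50), percent proliferation inhibition was derived from CellTiter 96 Aqueous One viability readings. The medium contained 0.3% DMSO and 10% FBS. KRAS G12C MiaPaca-2 cells were plated at 2000–5000/well the day before.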

| Compound | IC50 [1] | % inh of MAPK p38 in Panc-1 (MAPK p38 phosphorylation) | inhibition (IL6) | inhibition at 10 µM (TNF-alpha) |
| --- | --- | --- | --- | --- |
| COCCNc1nc(-c2nccn2C)nn2cc(-c3cccnc3)c(-c3ccccc3)c12 [Compound 195, N-(2-Methoxyethyl)-2-(1-methyl-1H-imidazol-2-yl)-5-phenyl-6-(pyridin-3-yl)pyrrolo[2,1-f][1,2,4]triazin-4-amine] | > 1 µM | E* (E* = 1-30% activation) | 50 to 74% | 0% |
| COc1ccnc(Nc2nc(-c3nccn3C)nn3cc(-c4cccnc4)c(-c4ccccc4)c23)c1 [Compound 196, N-(4-Methoxypyridin-2-yl)-2-(1-methyl-1H-imidazol-2-yl)-5-phenyl-6-(pyridin-3-yl)pyrrolo[2,1-f][1,2,4]triazin-4-amine] | < 0.15 µM | F (F = 31-74% inhibition) | 75 to 100% | 75 to 100% |
| CO[C@H]1C[C@H](Nc2nc(-c3nccn3C)nn3cc(-c4ccncc4)c(-c4ccccc4)c23)C1 [Compound 199, N-((1r,3r)-3-Methoxycyclobutyl)-2-(1-methyl-1H-imidazol-2-yl)-5-phenyl-6-(pyridin-4-yl)pyrrolo[2,1-f][1,2,4]triazin-4-amine] | > 1 µM | E (E = 1-30% inhibition) | 75 to 100% | 1 to 24% |
| COCCNc1nc(-c2nccn2C)nn2cc(-c3ccncc3)c(-c3ccccc3)c12 [Compound 202, N-(2-Methoxyethyl)-2-(1-methyl-1H-imidazol-2-yl)-5-phenyl-6-(pyridin-4-yl)pyrrolo[2,1-f][1,2,4]triazin-4-amine] | > 1 µM | E (E = 1-30% inhibition) | 50 to 74% | 1 to 24% |
| CO[C@H]1C[C@H](Nc2nc(-c3nccn3C)nn3cc(-c4ccccc4)c(-c4ccccc4)c23)C1 [Compound 203, N-((1r,3r)-3-Methoxycyclobutyl)-2-(1-methyl-1H-imidazol-2-yl)-5,6-diphenylpyrrolo[2,1-f][1,2,4]triazin-4-amine] | 0.51 to 1 µM | G (G = 75-99% inhibition) | 75 to 100% | 75 to 100% |
| CO[C@H]1C[C@H](Nc2nc(-c3nccn3C)nn3cc(-c4cccc(CN)c4)c(-c4ccccc4)c23)C1 [Compound 204, 6-(3-(aminomethyl)phenyl)-N-((1r,3r)-3-methoxycyclobutyl)-2-(1-methyl-1H-imidazol-2-yl)-5-phenylpyrrolo[2,1-f][1,2,4]triazin-4-amine] | > 1 µM | E (E = 1-30% inhibition) | 75 to 100% | 25 to 49% |
| CO[C@H]1C[C@H](Nc2nc(-c3nccn3C)nn3cc(-c4ccc(CN)cc4)c(-c4ccccc4)c23)C1.Cl [Compound 206, 6-(4-(Aminomethyl)phenyl)-N-((1r,3r)-3-methoxycyclobutyl)-2-(1-methyl-1H-imidazol-2-yl)-5-phenylpyrrolo[2,1-f][1,2,4]triazin-4-amine hydrochloride salt] | > 1 µM | E (E = 1-30% inhibition) | 75 to 100% | 1 to 24% |
| CO[C@H]1C[C@H](Nc2nc(-c3nccn3C)nn3cc(-c4ccc(OCCN)cc4)c(-c4ccccc4)c23)C1.Cl [Compound 208, 6-(4-(2-Aminoethoxy)phenyl)-N-((1r,3r)-3-methoxycyclobutyl)-2-(1-methyl-1H-imidazol-2-yl)-5-phenylpyrrolo[2,1-f][1,2,4]triazin-4-amine hydrochloride salt] | > 1 µM | G (G = 75-99% inhibition) | 75 to 100% | 25 to 49% |
| COc1cccc(-c2cn3nc(-c4nccn4C)nc(N[C@H]4C[C@H](OC)C4)c3c2-c2ccccc2)c1C [Compound 209, 6-(3-methoxy-2-methylphenyl)-N-((1r,3r)-3-methoxycyclobutyl)-2-(1-methyl-1H-imidazol-2-yl)-5-phenylpyrrolo[2,1-f][1,2,4]triazin-4-amine] | 0.15 to 0.5 µM | H (H = 100% inhibition) | 75 to 100% | 75 to 100% |
| CO[C@H]1C[C@H](Nc2nc(-c3nccn3C)nn3cc(-c4cccc5c4CCO5)c(-c4ccccc4)c23)C1 [Compound 210, 6-(2,3-Dihydrobenzofuran-4-yl)-N-((1r,3r)-3-methoxycyclobutyl)-2-(1-methyl-1H-imidazol-2-yl)-5-phenylpyrrolo[2,1-f][1,2,4]triazin-4-amine] | 0.51 to 1 µM | G (G = 75-99% inhibition) | 75 to 100% | 75 to 100% |
| COCCCS(=O)(=O)Nc1nc(-c2nccn2C)nn2cc(-c3ccccc3)c(-c3ccccc3)c12 [Compound 213, 3-Methoxy-N-(2-(1-methyl-1H-imidazol-2-yl)-5,6-diphenylpyrrolo[2,1-f][1,2,4]triazin-4-yl)propane-1-sulfonamide] | 0.51 to 1 µM | F (F = 31-74% inhibition) | 25 to 49% | 0% |

Further lines, with some results ahead:

| IC50 [1] | Compound | % inh of MAPK p38 in Panc-1 (MAPK p38 phosphorylation) | inhibition (IL6) | inhibition at 10 µM (TNF-alpha) |
| --- | --- | --- | --- | --- |
| > 1 µM | CO[C@H]1C[C@H](Nc2nc(-c3nccn3C)nn3cc(-c4cccnc4)c(-c4ccccc4)c23)C1 [Compound 192, N-((1r,3r)-3-Methoxycyclobutyl)-2-(1-methyl-1H-imidazol-2-yl)-5-phenyl-6-(pyridin-3-yl)pyrrolo[2,1-f][1,2,4]triazin-4-amine] | E* (E* = 1-30% activation) | 75 to 100% | 25 to 49% |
| > 1 µM | CO[C@H]1C[C@@H](Nc2nc(-c3nccn3C)nn3cc(-c4ccncc4)c(-c4ccccc4)c23)C1 [Compound 198, N-((1s,3s)-3-Methoxycyclobutyl)-2-(1-methyl-1H-imidazol-2-yl)-5-phenyl-6-(pyridin-4-yl)pyrrolo[2,1-f][1,2,4]triazin-4-amine] | E (E = 1-30% inhibition) | 25 to 49% | 25 to 49% |
| > 1 µM | CO[C@H]1C[C@H](Nc2nc(-c3nccn3C)nn3cc(-c4ccc(CCN)cc4)c(-c4ccccc4)c23)C1.Cl [Compound 207, 6-(4-(2-Aminoethyl)phenyl)-N-((1r,3r)-3-methoxycyclobutyl)-2-(1-methyl-1H-imidazol-2-yl)-5-phenylpyrrolo[2,1-f][1,2,4]triazin-4-amine hydrochloride salt] | H (H = 100% inhibition) | 75 to 100% | 75 to 100% |
| > 1 µM | Cn1ccnc1-c1nc(NS(C)(=O)=O)c2c(-c3ccccc3)c(-c3ccccc3)cn2n1 [Compound 212, N-(2-(1-Methyl-1H-imidazol-2-yl)-5,6-diphenylpyrrolo[2,1-f][1,2,4]triazin-4-yl) methanesulfonamide] | F (F = 31-74% inhibition) | 1 to 24% | 0% |
| > 1 µM | CO[C@H]1C[C@H](S(=O)(=O)Nc2nc(-c3nccn3C)nn3cc(-c4ccccc4)c(-c4ccccc4)c23)C1 [Compound 214, (1r,3r)-3-Methoxy-N-(2-(1-methyl-1H-imidazol-2-yl)-5,6-diphenylpyrrolo[2,1-f][1,2,4]triazin-4-yl)cyclobutane-1-sulfonamide] | G (G = 75-99% inhibition) | 1 to 24% | 0% |
